The source of these data is patent US12448375B2, “Kinase inhibitors for the treatment of neurodegenerative diseases” (Ohio State Innovation Foundation, priority 2019, dated 2025).

Holding throughout (assay type): biochemical
The target of experiment [1] is TNIK (Homo sapiens, UniProt Q9UKE5). Briefly: Enzymatic kinase assay, TNIK. The protocol: [Worded in the source for another target; this target is reported under the same test.] (§1) The anti-JNK3 activity of compounds prepared as in the previous examples was evaluated using a Reaction Biology Corp. HotSpot Kinase Assay. Base reaction buffer was 20 mM HEPES (4-(2-hydroxyethyl)-1-piperazineethanesulfonic acid) at pH 7.5 with 10 mM MgCl2, 1 mM EGTA (ethylene glycol-bis(β-aminoethyl ether)-N,N,N′,N′-tetracetic acid), 0.02% Brij™ 35, 0.02 mg/mL BSA (bovine serum albumin), 0.1 mM Na3VO4, 2 mM DTT (dithiothreitol), and 1% DMSO. Required cofactors were added individually to each kinase reaction.
(§2) Kinase activity was evaluated as follows: • (1) Substrate was dissolved in freshly prepared reaction buffer • (2) Any required cofactors were dissolved in the substrate solution • (3) Kinase was added to the substrate solution followed by gentle mixing • (4) Compounds to be tested dissolved in 100% DMSO were added to the kinase reaction mixture using an Echo550 acoustic liquid handler (Labcyte, San Jose, CA) and incubated for 20 minutes at room temperature • (5) ^33P-ATP was added to the reaction mixture to initiate the kinase reaction • (6) The reaction mixture was incubated for 2 hours at room temperature • (7) Kinase activity was detected by spotting the kinase reaction on Whatman P81 paper, exposing and developing the images using a phosphorimager, and quantifying counts to determine kinase activity

The target in experiment [2] is Abl-1 (Homo sapiens, UniProt P00519). Briefly: Enzymatic kinase assay, Abl-1. The protocol: [Worded in the source for another target; this target is reported under the same test.] as §1, §2
The target of experiment [3] is MINK1 (Homo sapiens, UniProt Q8N4C8). Briefly: Enzymatic kinase assay, MINK1.
Experiment [4] has as its target T1, p38a (Homo sapiens, UniProt Q16539).
T1 construct: purchased Reaction Biology Corp
Briefly: HotSpot Kinase Assay, P38a. The conditions noted are these: HotSpot radiometric assay, 33P-ATP. In outline: (§3)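 Radiometric HotSpot kinase assay in 20 mM HEPES pH 7.5 with 10 mM MgCl2, 1 mM EGTA, 0.02% Brij 35, 0.02 mg/mL BSA, 0.1 mM Na3VO4, 2 mM DTT and 1% DMSO. Cofactors were added per kinase, with the same format for all three kinases.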

The target of experiment [5] is HGK (Homo sapiens, UniProt O95819). Kind of experiment: Enzymatic kinase assay, HGK. As for the experimental part:
[Worded in the source for another target; this target is reported under the same test.] as §1, §2

Experiment [6] deals with T2, JNK1 (Homo sapiens, UniProt P45983).
T2 construct: purchased Reaction Biology Corp
Briefly: HotSpot Kinase Assay, JNK1. The conditions noted are these: HotSpot radiometric assay, 33P-ATP. The procedure, abridged: as §3

In experiment [7] the target is DDR1 (Homo sapiens, UniProt Q08345). Kind of experiment: Enzymatic kinase assay, DDR1. The protocol: [Worded in the source for another target; this target is reported under the same test.] as §1, §2
Experiment [8] addresses T3, JNK3 (Homo sapiens, UniProt P53779).
T3 construct: purchased Reaction Biology Corp
Kind of experiment: HotSpot Kinase Assay (Reaction Biology Corp.), anti-JNK3 activity. The conditions noted are these: HotSpot radiometric assay, 33P-ATP. In outline:
as §3

Some results are limits rather than exact numbers.

Sequence of TNIK (Q9UKE5 whole entry): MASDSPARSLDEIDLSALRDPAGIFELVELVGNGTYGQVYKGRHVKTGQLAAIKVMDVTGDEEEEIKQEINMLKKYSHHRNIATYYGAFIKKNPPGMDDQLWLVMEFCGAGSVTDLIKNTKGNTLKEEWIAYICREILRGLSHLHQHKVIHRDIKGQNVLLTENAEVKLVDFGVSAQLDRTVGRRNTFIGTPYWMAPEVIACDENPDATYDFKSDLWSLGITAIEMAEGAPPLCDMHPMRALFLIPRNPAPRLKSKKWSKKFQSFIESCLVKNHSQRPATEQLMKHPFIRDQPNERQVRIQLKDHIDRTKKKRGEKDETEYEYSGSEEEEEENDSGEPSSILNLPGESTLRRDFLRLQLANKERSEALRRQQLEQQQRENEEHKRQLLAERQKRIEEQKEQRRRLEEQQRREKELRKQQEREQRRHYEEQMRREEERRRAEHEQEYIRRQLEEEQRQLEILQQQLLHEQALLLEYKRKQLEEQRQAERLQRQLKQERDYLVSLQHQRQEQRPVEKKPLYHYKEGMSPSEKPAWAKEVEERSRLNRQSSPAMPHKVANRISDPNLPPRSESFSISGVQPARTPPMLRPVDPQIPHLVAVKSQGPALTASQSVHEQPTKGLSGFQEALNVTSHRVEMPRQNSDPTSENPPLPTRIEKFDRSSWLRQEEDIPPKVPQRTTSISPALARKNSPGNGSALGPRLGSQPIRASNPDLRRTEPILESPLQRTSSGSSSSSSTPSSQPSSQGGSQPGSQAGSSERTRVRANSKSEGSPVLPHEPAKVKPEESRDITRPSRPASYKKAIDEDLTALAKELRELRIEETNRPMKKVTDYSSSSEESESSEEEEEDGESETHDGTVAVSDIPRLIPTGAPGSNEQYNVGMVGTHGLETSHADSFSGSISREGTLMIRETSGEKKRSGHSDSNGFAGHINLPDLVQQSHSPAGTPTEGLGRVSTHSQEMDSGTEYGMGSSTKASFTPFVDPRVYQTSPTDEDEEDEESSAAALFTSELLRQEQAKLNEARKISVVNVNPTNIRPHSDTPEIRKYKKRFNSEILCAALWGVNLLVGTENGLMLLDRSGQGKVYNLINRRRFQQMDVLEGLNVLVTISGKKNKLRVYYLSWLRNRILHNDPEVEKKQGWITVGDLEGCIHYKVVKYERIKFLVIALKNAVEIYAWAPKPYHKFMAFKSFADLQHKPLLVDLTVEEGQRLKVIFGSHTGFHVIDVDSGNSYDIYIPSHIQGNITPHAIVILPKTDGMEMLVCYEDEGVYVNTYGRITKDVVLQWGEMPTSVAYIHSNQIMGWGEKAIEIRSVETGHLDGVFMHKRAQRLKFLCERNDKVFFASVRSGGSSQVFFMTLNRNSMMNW
Sequence of DDR1 (Q08345 19-913): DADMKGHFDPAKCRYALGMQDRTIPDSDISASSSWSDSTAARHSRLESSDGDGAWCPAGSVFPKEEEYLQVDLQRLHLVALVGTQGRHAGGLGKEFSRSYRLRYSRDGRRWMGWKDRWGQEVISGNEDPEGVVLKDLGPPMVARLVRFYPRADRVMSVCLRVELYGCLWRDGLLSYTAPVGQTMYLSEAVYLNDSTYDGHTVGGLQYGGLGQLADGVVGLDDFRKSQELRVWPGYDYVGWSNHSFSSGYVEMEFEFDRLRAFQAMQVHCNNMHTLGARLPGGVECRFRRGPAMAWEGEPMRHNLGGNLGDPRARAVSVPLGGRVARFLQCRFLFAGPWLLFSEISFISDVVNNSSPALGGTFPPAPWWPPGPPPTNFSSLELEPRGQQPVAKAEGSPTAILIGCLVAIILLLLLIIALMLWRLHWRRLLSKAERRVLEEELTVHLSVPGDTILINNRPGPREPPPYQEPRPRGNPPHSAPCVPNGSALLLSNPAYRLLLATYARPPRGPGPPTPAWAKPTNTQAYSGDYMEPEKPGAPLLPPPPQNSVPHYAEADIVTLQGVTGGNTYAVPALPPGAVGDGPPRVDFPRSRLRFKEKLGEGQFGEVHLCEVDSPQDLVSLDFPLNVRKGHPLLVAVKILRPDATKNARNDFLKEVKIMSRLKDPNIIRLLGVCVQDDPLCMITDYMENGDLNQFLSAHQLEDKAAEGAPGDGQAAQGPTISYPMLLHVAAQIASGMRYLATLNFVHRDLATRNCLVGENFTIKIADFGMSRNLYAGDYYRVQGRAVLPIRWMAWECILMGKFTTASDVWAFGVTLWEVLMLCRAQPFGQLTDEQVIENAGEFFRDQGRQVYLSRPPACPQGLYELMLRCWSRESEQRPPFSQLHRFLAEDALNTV
T2 sequence (P45983 whole entry): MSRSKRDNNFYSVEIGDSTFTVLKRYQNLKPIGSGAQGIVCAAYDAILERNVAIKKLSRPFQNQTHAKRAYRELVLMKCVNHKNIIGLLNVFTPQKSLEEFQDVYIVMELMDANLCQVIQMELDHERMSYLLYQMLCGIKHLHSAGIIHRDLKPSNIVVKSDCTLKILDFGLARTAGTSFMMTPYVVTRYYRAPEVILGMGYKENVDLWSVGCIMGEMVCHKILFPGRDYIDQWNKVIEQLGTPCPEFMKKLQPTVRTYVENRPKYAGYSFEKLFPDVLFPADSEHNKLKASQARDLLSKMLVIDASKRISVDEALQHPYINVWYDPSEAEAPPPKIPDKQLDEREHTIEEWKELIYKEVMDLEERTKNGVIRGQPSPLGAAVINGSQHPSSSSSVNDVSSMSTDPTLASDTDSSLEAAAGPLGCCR
Sequence of MINK1 (Q8N4C8 whole entry): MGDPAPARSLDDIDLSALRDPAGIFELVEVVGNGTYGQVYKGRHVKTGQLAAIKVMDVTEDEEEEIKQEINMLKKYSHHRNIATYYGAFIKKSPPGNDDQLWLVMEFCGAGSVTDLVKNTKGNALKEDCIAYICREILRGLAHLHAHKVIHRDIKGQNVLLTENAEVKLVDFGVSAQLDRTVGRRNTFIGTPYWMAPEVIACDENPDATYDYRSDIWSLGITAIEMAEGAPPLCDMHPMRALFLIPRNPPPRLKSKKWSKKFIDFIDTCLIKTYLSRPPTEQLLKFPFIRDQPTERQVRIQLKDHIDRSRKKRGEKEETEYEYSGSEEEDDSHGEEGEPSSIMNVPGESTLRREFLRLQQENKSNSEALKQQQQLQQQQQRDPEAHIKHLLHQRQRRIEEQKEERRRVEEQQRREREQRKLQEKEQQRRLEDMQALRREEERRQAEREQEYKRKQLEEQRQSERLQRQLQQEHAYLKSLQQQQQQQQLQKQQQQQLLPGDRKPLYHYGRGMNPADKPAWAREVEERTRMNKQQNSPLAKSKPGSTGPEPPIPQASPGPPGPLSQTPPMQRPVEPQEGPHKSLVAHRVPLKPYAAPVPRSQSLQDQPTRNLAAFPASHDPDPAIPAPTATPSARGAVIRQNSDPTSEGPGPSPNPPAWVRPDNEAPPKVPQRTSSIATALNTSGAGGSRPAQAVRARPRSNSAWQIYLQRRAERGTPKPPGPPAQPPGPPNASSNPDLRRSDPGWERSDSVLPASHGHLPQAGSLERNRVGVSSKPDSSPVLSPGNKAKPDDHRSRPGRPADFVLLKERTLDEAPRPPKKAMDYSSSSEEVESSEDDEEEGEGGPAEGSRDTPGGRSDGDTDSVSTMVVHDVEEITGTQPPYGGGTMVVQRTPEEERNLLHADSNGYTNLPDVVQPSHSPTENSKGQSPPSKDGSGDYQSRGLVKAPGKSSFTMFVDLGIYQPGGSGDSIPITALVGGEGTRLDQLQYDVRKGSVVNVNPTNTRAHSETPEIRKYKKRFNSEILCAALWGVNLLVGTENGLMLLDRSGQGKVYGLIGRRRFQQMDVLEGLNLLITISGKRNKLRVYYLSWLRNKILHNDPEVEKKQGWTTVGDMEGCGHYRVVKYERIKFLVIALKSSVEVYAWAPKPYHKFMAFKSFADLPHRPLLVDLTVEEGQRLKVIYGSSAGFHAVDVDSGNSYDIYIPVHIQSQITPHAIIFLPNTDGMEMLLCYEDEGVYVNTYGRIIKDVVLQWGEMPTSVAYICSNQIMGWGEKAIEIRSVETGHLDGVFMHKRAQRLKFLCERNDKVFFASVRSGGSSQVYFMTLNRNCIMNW
T1 sequence (Q16539 whole entry): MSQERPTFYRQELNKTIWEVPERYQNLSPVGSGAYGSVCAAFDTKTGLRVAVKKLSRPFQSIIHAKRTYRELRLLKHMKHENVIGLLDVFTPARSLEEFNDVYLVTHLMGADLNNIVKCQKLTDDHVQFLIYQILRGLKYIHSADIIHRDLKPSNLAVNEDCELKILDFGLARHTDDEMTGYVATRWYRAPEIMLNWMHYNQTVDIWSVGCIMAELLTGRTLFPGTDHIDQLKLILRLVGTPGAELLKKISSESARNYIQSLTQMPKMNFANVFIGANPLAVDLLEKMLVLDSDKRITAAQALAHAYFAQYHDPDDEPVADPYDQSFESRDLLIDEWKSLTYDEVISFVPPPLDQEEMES
T3 sequence (P53779 whole entry): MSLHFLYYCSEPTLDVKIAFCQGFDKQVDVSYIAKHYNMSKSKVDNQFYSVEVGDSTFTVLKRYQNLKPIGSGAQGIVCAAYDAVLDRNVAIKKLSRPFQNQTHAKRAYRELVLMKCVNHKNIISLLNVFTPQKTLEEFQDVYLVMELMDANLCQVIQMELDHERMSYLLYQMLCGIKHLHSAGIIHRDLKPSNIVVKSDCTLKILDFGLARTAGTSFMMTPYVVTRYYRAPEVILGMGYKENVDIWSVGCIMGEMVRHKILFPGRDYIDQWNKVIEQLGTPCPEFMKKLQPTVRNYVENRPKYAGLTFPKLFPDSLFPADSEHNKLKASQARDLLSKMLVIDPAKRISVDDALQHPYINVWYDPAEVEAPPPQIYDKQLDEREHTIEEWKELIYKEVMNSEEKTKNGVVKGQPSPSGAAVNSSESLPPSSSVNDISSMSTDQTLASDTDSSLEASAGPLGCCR

One may read the IC50 as the concentration needed to halve the response being measured. For the compound `CN1CCN=C1NC(=O)c1cc(-n2ncc3nc(Nc4ccccc4Cl)ccc32)cs1` [Compound 58, 4-(5-((2-chlorophenyl)amino)-1H-pyrazolo[4,3-b]pyridin-1-yl)-N-(1-methyl-4,5-dihydro-1H-imidazol-2-yl)thiophene-2-carboxamide], the half-inhibitory concentration (IC50) in experiment [1] is under 200 nM; in experiment [2], over 1000 nM; in experiment [3] it was under 200 nM; in experiment [4], over 1000 nM; in experiment [5] it was under 200 nM; in experiment [6], over 1000 nM. Further, the IC50 in experiment [7] and in experiment [8] was under 200 nM in each case.

As to `CNC(=O)c1cc(-n2ncc3cc(Nc4c(F)cccc4Cl)c(OC)cc32)cs1` [Compound 91, 4-(5-((2-chloro-6-fluorophenyl)amino)-6-methoxy-1H-indazol-1-yl)-N-methylthiophene-2-carboxamide], the IC50 in experiment [1] was under 200 nM; in experiment [2], 200 to 1000 nM; in experiment [3] it was 200 to 1000 nM; in experiment [4], 200 to 1000 nM; in experiment [5] it was under 200 nM; in experiment [6], over 1000 nM. Also, the IC50 in experiment [7] and in experiment [8] was under 200 nM throughout.

Consider `CNC(=O)c1cc(-n2ncc3cc(Nc4c(Cl)cccc4OC)ncc32)cs1` [Compound 108, 4-(5-((2-chloro-6-methoxyphenyl)amino)-1H-pyrazolo[3,4-c]pyridin-1-yl)-N-methylthiophene-2-carboxamide], for which the 50% inhibitory concentration (IC50) was under 200 nM in experiment [1]; over 1000 nM in experiment [2]; under 200 nM in experiment [3]; 200 to 1000 nM in experiment [4]; under 200 nM in experiment [5]; over 1000 nM in experiment [6]. Also, the figures for the half-maximal inhibitory concentration (IC50) in experiment [7] and in experiment [8] were 200 to 1000 nM and under 200 nM, respectively.

Turning to `COc1cccc(Cl)c1Nc1cc2cnn(-c3csc(C(=O)NC4COC4)c3)c2nc1C` [Compound 110, 4-(5-((2-chloro-6-methoxyphenyl)amino)-6-methyl-1H-pyrazolo[3,4-b]pyridin-1-yl)-N-(oxetan-3-yl)thiophene-2-carboxamide], the IC50 was 200 to 1000 nM in experiment [1]; over 1000 nM in experiment [2]; over 1000 nM in experiment [3]; 200 to 1000 nM in experiment [4]; over 1000 nM in experiment [5]; over 1000 nM in experiment [6]. For the same compound, the values for the IC50 in experiment [7] and in experiment [8] were over 1000 nM and under 200 nM, respectively.
